In publication PMC11578313, “Miniaturized Modular Click Chemistry‐enabled Rapid Discovery of Unique SARS‐CoV‐2 M^pro Inhibitors With Robust Potency and Drug‐like Profile” (Advanced Science, 2024):
Values joined by “and” are separate entries in the source; they are usually repeats but may differ in a detail not shown here. Equal entries are not always repeated. Where two headings read alike, the source gives them in different places.

Experiments:
in vitro [1] = settings: human
SARS‐CoV‐2 M^pro = SARS‐CoV‐2 M^pro (Severe acute respiratory syndrome coronavirus 2, UniProt P0DTD1); assay: SARS‐CoV‐2 main protease enzymatic assay (FRET inhibitor screening kit); format: biochemical; settings: for inhibition at 5 µM: read-out: Inhibitionrate at @5μM
[2] = system: SARS‐CoV‐2 (hCoV‐19/Korea/KCDC06/2020, wild type); assay: microbe, parasite or virus in culture; format: cell-based
SARS-CoV-2 M^pro = settings: cited from earlier work
SARS‐CoV‐2 [3] = assay: microbe, parasite or virus in culture; format: cell-based
SARS‐CoV‐2 [4] = settings: Vero E6; cited from earlier work
[5] = cited from earlier work
in vitro [6] = settings: African green monkey
[7] = cytotoxicity; cited from earlier work
[8] = Severe acute respiratory syndrome coronavirus 2, Calu-3, Calu‐3 cells, racemate, enantiomers and […] measured in the same system, read-out: EC50, anti‐SARS‐CoV‐2 activity in Calu‐3 cells (Figure 3B)
[9] = Severe acute respiratory syndrome coronavirus 2, Vero cells, with CP‐100356, read-out: EC50 ± SD, Vero cells, with P‐gp inhibitor
[10] = Severe acute respiratory syndrome coronavirus 2, Calu-3, Calu‐3 cells, with CP‐100356, read-out: EC50 ± SD, Calu‐3 cells, with P‐gp inhibitor
[11] = Severe acute respiratory syndrome coronavirus 2, Calu-3, Calu‐3 cells, without CP‐100356, read-out: EC50 ± SD, Calu‐3 cells, without P‐gp inhibitor
[12] = Severe acute respiratory syndrome coronavirus 2, Vero cells, without CP‐100356, read-out: EC50 ± SD, Vero cells, without P‐gp inhibitor
[13] = Calu‐3 cells, without CP‐100356, read-out: EC50 ± SD, Calu‐3 cells, without P‐gp inhibitor

Row | SMILES | IC50 (SARS‐CoV‐2 M^pro) | inhibition at 5 µM (SARS‐CoV‐2 M^pro) [%] | inhibition of M^pro enzymatic activity, first round of screening (SARS‐CoV‐2 M^pro) [%] | CC50 at 2 day (in vitro [1]; CC50, Calu‐3 cells, MTT assay) [nM] | EC50 (SARS‐CoV‐2 [3]; [9]) [nM] | EC50 [2, 10] [nM] | EC50 [2, 11] [nM] | CC50 at 2 day (in vitro [6]) [nM] | EC50 (SARS‐CoV‐2 [3]; [12]) [nM] | other results
1 | Cc1cncc(C(=O)N2C[C@H]3CC[C@@H](C2)N3[C@@H](c2cccc(F)c2)c2cn(CCc3ccsc3)nn2)c1 [Compound C5N17A] | 3180 nM | 53.2 |  |  |  |  |  |  |  | CC50 at 2 day (in vitro [1]; CC50, column 9, after the Calu-3 EC50 columns): > 100000 nM; EC50 [2, 8]: 5950 nM
2 | O=C(c1cccnc1)N1C[C@H]2CC[C@@H](C1)N2C(c1cccc(F)c1)c1cn(CCc2ccsc2)nn1 (stereo partly shown) [Compound C6N17] | 300 ± 12 nM | 91.7 | 90 |  |  |  |  |  |  | 
3 | O=C(c1cccnc1)N1C[C@H]2CC[C@@H](C1)N2C(c1cccc(F)c1)c1cn(CCN2C(=O)c3ccccc3C2=O)nn1 (stereo partly shown) [Compound C6N21] | 200 ± 16 nM | 95.1 | 89 |  |  |  |  |  |  | 
4 | O=C(NCc1cccs1)C1CN(C(=O)c2cccnc2)CCN1c1ccc(Cl)c(Cl)c1 (stereo not shown) [GC‐14, reference compound] | 800 nM and 750 nM |  | 98 | > 100000 | 3420 ± 443 | 755 ± 46 | 1420 ± 57 |  |  | IC50 (SARS-CoV-2 M^pro): 400 nM; EC50 (SARS‐CoV‐2 [4]): 1100 nM; half‐life [5]: 1.72 h; oral bioavailability [5]: 7.2%
5 | Cc1cncc(C(=O)N2C[C@H]3CC[C@@H](C2)N3C(c2cccc(F)c2)c2cn(Cc3cccc([N+](=O)[O-])c3)nn2)c1 (stereo partly shown) [Compound C5N5] | 1230 ± 1 nM | 79.2 | 93 | > 100000 | 1850 ± 526 | 2560 ± 86 | 2860 ± 395 | > 100000 | 1790 ± 21 | 
6 | Cc1cncc(C(=O)N2C[C@H]3CC[C@@H](C2)N3C(c2cccc(F)c2)c2cn(CCN3C(=O)c4ccccc4C3=O)nn2)c1 (stereo partly shown) [Compound C5N21] | 150 ± 4 nM | 99.5 | 100 | > 100000 | 1380 ± 119 | 259 ± 43 | < 1000 | > 100000 | 16200 ± 410 | EC50 [2, 13]: 591 ± 11 nM
7 | Cc1cncc(C(=O)N2C[C@H]3CC[C@@H](C2)N3C(c2cccc(F)c2)c2cccc(F)c2)c1 [AA‐625, reference compound] | 900 nM and 904 nM | 87.9 | 57 | > 100000 | 2020 ± 76 | < 10 | 150 | 43900 ± 2940 | 2050 ± 56 | CC50 at 2 day (in vitro [1]; CC50 (Table 3), Calu‐3 cells): 42900 ± 414 nM; CC50 [7]: 22500 nM; EC50 [2, 13]: 148 ± 7 nM
8 | Cc1cncc(C(=O)N2C[C@H]3CC[C@@H](C2)N3C(c2cccc(F)c2)c2cn(CC(N)=O)nn2)c1 (stereo partly shown) [Compound C5N58] | 151 ± 6 nM | 100 | 99 | > 100000 | 1390 ± 171 | 337 | 4940 ± 687 | > 100000 | > 100000 | EC50 ([2]; Calu‐3 cells, with CP‐100356, read-out: EC50 ± SD, Calu‐3 cells, with P‐gp inhibitor): 338 ± 56 nM
9 | Cc1cncc(C(=O)N2C[C@H]3CC[C@@H](C2)N3C(c2cccc(F)c2)c2cn(CCc3ccsc3)nn2)c1 (stereo partly shown) [Compound C5N17] | 177 ± 16 nM | 98.7 | 101 | > 100000 | 363 ± 29 | 28 ± 2 | 166 ± 11 | > 100000 | 1570 ± 131 | CC50 at 2 day (in vitro [1]; CC50 (Table 3), Calu‐3 cells): > 100000 nM; EC50 [2, 8]: 200 ± 27 nM
10 | Cn1cnc(Cn2c(=O)[nH]/c(=N\c3cc4cn(C)nc4cc3Cl)n(Cc3cc(F)c(F)cc3F)c2=O)n1 [Ensitrelvir, reference compound] |  |  |  | > 100000 |  |  |  | > 100000 |  | EC50 (SARS‐CoV‐2 [3]; Severe acute respiratory syndrome coronavirus 2, Vero, read-out: EC50 ± SD, Vero cells, with P‐gp inhibitor): < 46 nM; EC50 (SARS‐CoV‐2 [3]; Severe acute respiratory syndrome coronavirus 2, Vero, read-out: EC50 ± SD, Vero cells, without P‐gp inhibitor): 165 ± 15 nM; EC50 ([2]; Severe acute respiratory syndrome coronavirus 2, Calu-3, read-out: EC50 ± SD, Calu‐3 cells, with P‐gp inhibitor): < 46 nM; EC50 ([2]; Severe acute respiratory syndrome coronavirus 2, Calu-3, read-out: EC50 ± SD, Calu‐3 cells, without P‐gp inhibitor): 110 nM; EC50 ([2]; read-out: EC50 ± SD, Calu‐3 cells, without P‐gp inhibitor): 112 ± 11 nM
